Entries after “also recorded” stand apart in the source; their conditions may differ.
Assays:
RET/PTC3 = biological target: T1, RET/PTC3 (Homo sapiens, UniProt P07949); assay: RET/PTC autophosphorylation, in vitro immunokinase assay of RET-IP extracts from RET/PTC3-5 cells; type: biochemical; conditions: RET-IP extracts from RET/PTC3-5 cells treated with doxycycline for 48 h
T1 construct: expressed in transfected cells; host or cells: PCCL3 thyroid cell line (clone RET/PTC3-5), doxycycline-inducible expression
T1 sequence (P07949 with tags, fused parts or gaps): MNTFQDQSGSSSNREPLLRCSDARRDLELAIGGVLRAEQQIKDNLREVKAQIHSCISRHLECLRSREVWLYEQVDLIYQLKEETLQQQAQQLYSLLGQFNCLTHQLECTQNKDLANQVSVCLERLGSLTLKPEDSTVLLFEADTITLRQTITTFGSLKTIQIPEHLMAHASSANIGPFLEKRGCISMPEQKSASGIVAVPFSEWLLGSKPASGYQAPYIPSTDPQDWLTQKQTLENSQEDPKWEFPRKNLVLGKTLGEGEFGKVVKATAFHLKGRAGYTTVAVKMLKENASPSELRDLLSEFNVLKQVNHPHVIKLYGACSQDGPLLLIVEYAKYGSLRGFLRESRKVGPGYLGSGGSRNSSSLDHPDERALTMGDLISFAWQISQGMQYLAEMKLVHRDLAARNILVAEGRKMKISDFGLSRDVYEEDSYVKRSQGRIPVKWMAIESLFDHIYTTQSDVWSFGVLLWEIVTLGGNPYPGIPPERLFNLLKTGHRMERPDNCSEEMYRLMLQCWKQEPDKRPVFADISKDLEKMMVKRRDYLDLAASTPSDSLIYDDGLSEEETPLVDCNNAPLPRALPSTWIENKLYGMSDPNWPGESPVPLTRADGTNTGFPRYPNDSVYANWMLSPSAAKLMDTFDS
Excerpt: In order to explore the activity of a compound which decreases the activity of the EGF on RET kinase, for example, a well-differentiated clonal thyroid cell line, PCCL3, conditionally expressing either RET/PTC3 or RET/PTC1 in a tetracyclin (doxycyclin)-dependent manner as described below can be used. The activation of expression of RET/PTC1 or 3 results in dimerization, autophosphorylation, and association with a number of signaling intermediates including Shc and PLCγ. […]
Confluent T-75 flasks are washed with ice cold PBS containing 0.2 mM sodium ortho-vanadate, Cells are then lysed with cold RIPA buffer 1.8 ml (20 mM Tris, pH 7.4, 150 mM NaCl, 1% Nonidet P-40, 1% Tween 20, 20 mM sodium fluoride, 1 mM sodium ortho-vanadate, 1 mM EGTA, […], 0.2 mM PMSF, with Sigma Protease inhibitor mix) with constant agitation at 4 C for 20 min. […] Proteins are subjected to SDS-PAGE gel (7.5%), their phosphorylation measured by Phosphorimager densitometry (Molecular Dynamics, Sunnyvale, Calif.) after transfer to nitrocellulose membranes. Phosphorylation is then normalized to total RET protein in the IP determined by Western analysis using goat polyclonal anti-RET antibody (SantaCruz). […]

EGF-R = biological target: T2, EGF-R (Homo sapiens, UniProt P00533); assay: EGF-R autophosphorylation, immunokinase assay of A431 cells; type: biochemical
T2 construct: The human squamous-cell carcinoma cell line A431 stably overexpressing the EGF-R; endogenous in cells; host or cells: A431 human squamous-cell carcinoma cells

insulin receptor = biological target: T3, insulin receptor (Homo sapiens, UniProt P06213); assay: Insulin receptor autophosphorylation, immunokinase assay of CHO-wt-IR cells; type: biochemical
T3 construct: expressed in transfected cells; host or cells: CHO-wt IR cells

[1] = system: PLCγ phosphorylation by RET/PTC; assay: Activation (phosphorylation) of PLCγ by RET/PTC in Ret-PTC3-5 cells; type: cell-based; conditions: Ret-PTC3-5 cells, doxycycline, inhibitor for 24 h; read-out: IC50 of inhibition of PLCγ phosphorylation
Description: Ret-PTC3-5 cells are seeded at 1×10^5 cells/well in 6-well Corning plates. After 3 days, cells are treated with or without doxycycline in the presence of the selected concentration of inhibitor dissolved in solvent for 24 h. Cells are rinsed twice with cold PBS containing 0.1 mM sodium orthovanadate, and left for 20 minutes in ice-cold RIPA buffer. Cell lysates are collected by centrifugation at 4C, and pelletted at 10,000×g for 20 min. Protein assays are performed on aliquots of supernatants by the Coomassie Blue assay (Pierce, Rockford, Ill.). 650 μg of protein are incubated with anti-PLC γ antibody (SantaCruz) or normal IgG overnight. The immune complexes are precipitated with proteinAG agarose (Santa Cruz) previously washed with RIPA buffer as described. After three washes with RIPA buffer, precipitates are eluted into 30 μl sample buffer, heated 10 min at 95 C, and ran on SDS-PAGE gel for Western blot analysis. Blots are initially probed with anti-phosphotyrosine. Loading is normalized by probing with anti-PLC γ antibody (SantaCruz).
It was shown before that upon activation, RET associates with and phosphorylates PLCγ. To further explore the effects of PKI166 on RET kinase activity, the impact of pretreatment with the compound on PLCγ phosphorylation is examined. When grown in the absence of doxycycline, there is no detectable PLCγ phosphorylation. […]

NIH3T3-RETC634Y cells = assay: Growth of NIH3T3 cells expressing constitutively active RET Cys634Tyr; type: cell-based; conditions: 20 nM or 30 nM for 9 days, 5% or 1% serum (FIG. 1)
Description: (§1) The indicated cell lines are allowed to plate overnight in 6-well plates (NIH3T3 cells at 5×10^4; 3T3-RETC634Y at 2×10^4). They are then grown in the presence of no PKI166, 20 nM PKI166 or 30 nM PKI166 for 9 days, with media changes every 3 days. Bars represent the X±SD of cell counts in 3 independent experiments. The first three columns show the results in NIH3T3-RetCys634Tyr in 5% serum, the next three columns show the results in NIH3T3-RetCys634Tyr in 1% serum and the last two columns the results in NIH3T3 in 5% serum (only vehicle and 30 nM PKI 166).
(§2) […] is the most common germine mutation of RET in multiple endocrine neoplasia type 2A stably expressing a constitutively active form of RET. NIH3T3-RETC634Y cells are transformed, as evidenced by growth in low serum conditions, colony formation in soft agar, and tumor formation in nude mice. […] PKI166 has no effect on growth of wild-type NIH3T3 cells grown in 5% serum (FIG. 1).

wild-type NIH3T3 cells = assay: Growth of wild-type NIH3T3 cells; type: cell-based; conditions: 5% serum; 30 nM, 9 days (FIG. 1)
Description: as §1, §2

T2 sequence (P00533 25-1210): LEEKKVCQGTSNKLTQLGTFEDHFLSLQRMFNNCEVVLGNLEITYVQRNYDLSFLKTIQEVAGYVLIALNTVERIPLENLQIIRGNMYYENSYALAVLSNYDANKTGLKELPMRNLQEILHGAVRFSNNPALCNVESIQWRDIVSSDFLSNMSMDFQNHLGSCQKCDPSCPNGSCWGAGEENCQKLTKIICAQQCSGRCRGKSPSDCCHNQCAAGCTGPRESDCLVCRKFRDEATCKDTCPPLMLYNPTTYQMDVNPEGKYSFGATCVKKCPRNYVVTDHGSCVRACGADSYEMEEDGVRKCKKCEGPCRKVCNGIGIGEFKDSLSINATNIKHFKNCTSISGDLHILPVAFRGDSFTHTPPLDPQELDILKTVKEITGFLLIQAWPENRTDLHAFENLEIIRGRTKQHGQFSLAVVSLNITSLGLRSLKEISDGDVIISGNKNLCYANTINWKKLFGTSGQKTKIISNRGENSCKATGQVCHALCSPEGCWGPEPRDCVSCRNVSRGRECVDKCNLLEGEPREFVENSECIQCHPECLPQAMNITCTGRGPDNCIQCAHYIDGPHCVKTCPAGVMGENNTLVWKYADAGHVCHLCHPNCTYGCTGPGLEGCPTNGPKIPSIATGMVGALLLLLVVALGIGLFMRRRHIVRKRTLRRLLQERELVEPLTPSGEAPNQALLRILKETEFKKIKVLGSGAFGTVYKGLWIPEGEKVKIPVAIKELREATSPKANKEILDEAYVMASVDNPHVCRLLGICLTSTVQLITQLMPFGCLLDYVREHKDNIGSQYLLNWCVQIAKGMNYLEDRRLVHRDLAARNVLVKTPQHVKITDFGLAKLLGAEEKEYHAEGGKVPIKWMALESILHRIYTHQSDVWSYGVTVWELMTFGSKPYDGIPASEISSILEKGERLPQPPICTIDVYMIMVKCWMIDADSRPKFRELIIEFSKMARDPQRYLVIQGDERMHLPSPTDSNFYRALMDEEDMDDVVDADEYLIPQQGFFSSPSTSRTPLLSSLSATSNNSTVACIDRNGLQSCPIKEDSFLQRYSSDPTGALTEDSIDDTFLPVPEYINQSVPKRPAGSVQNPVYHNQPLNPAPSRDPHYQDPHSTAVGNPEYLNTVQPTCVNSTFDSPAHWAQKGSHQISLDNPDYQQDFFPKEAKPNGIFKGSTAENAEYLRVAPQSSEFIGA
T3 sequence (P06213 28-1382, species assumed): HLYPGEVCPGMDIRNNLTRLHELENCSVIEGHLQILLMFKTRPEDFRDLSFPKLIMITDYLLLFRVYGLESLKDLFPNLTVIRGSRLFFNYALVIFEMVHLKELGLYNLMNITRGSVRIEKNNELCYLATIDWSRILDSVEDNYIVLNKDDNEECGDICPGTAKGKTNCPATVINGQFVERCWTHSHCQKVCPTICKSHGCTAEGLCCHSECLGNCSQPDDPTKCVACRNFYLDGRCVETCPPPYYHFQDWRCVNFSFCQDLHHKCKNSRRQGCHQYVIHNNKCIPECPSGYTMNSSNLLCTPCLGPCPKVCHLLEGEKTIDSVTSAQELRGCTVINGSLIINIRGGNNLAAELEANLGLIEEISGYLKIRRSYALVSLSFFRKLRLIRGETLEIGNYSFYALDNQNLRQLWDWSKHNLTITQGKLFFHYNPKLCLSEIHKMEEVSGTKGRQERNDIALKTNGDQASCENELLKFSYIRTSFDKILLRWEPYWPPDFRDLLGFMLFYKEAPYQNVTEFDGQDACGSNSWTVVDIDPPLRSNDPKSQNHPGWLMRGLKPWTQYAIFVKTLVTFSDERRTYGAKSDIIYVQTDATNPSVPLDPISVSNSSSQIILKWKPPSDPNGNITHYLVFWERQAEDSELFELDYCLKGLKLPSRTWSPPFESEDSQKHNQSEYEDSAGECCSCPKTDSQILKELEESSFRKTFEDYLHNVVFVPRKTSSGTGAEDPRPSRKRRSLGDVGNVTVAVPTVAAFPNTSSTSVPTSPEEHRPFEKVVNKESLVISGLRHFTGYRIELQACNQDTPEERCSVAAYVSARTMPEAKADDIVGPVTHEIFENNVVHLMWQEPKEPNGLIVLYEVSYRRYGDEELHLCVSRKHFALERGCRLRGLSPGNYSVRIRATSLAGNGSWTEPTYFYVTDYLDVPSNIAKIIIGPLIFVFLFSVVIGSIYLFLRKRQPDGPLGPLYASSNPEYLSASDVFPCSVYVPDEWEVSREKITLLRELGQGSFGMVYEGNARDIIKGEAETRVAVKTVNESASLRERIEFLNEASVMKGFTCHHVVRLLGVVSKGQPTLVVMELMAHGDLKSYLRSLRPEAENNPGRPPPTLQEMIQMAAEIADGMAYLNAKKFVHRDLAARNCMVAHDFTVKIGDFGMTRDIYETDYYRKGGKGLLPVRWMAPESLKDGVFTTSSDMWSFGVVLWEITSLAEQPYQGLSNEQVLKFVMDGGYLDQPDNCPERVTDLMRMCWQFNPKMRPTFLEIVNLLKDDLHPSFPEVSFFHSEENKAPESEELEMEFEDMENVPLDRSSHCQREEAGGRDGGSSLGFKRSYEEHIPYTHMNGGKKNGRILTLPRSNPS

C[C@@H](Nc1ncnc2[nH]c(-c3ccc(O)cc3)cc12)c1ccccc1 [PKI166, (R)-6-(4-hydroxy-phenyl)-4-[(1-phenyl-ethyl)-amino]-7H-pyrrolo[2,3-d]-pyrimidine]
IC50 (RET/PTC3): ~17.7 nM
IC50 (EGF-R): 8 nM
effect on insulin receptor autophosphorylation (insulin receptor): no effects
IC50 [1]: ~4 nM
inhibition of cell growth of RET-transformed fibroblasts (NIH3T3-RETC634Y cells): inhibits the growth; also recorded: powerful, concentration dependent inhibition of cell growth
effect on growth of wild-type NIH3T3 cells (wild-type NIH3T3 cells): no effect

Source: patent publication US20040191254A1, “Method of treatment of thyroid cancer” (priority 2001, published 2004)
